As usually defined, the IC50 is the concentration at which inhibition is half-maximal.

Where a name gives a salt, the structure may show the parent alone.

The results in this text go back to US20220089592A1, “IMIDAZO[1,2-A]PYRIDINYL DERIVATIVES AS IRAK4 INHIBITORS” (priority 2019, published 2022).

The target of one experiment is T1, IRAK4 (Homo sapiens, UniProt Q9NWZ3).
T1 sequence (Q9NWZ3 1-460): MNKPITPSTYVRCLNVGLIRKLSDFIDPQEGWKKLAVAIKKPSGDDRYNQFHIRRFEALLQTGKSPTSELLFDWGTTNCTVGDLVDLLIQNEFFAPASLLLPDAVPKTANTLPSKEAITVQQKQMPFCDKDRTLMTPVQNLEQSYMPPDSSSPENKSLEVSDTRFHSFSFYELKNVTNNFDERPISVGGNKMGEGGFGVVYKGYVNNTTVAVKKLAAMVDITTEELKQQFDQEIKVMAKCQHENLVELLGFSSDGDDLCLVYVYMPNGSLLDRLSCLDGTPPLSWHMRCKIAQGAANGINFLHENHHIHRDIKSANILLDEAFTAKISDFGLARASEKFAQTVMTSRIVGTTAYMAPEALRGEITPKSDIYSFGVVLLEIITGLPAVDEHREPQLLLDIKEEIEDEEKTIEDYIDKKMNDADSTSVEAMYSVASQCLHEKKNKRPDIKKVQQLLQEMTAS
Nature of the experiment: 2-hour 1 mM ATP IRAK4 Biochemical assay (as above, but with 100 pM IRAK4 and 1 mM ATP). As to conditions: IRAK4 MSD BIOCHEMICAL (1 mM ATP) IC50 (μM), 100 pM IRAK4, 2 hours. The method in brief:
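Run with 100 pM IRAK4 and 1 mM ATP for 2 hours, quenched with EDTA pH 8. Phosphorylated biotinylated peptide captured on streptavidin MSD plates and detected with anti-phosphothreonine antibody plus Sulfo-Tag secondary by electrochemiluminescence.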
Molecule `COc1nc(NC(=O)c2cccc3ccnn23)cn2cc(C34COC(C)(C3)C4)nc12` [Example 442, N-(8-methoxy-2-(1-methyl-2-oxabicyclo[2.1.1]hexan-4-yl)imidazo[1,2-a]pyrazin-6-yl)pyrazolo[1,5-a]pyridine-7-carboxamide] registered an IC50 of 0.024 µM.

For `COc1nc(NC(=O)c2cccc3ccnn23)cn2cc(C34CCC(C)(C3)OC4)nc12` (stereo not shown) [Example 470, N-(8-methoxy-2-(1-methyl-2-oxabicyclo[2.2.1]heptan-4-yl)imidazo[1,2-a]pyrazin-6-yl)pyrazolo[1,5-a]pyridine-7-carboxamide 2,2,2-trifluoroacetate], the IC50 worked out at 0.006 µM.

In the case of `CCOc1cc(NC(=O)c2cccc(C(F)(F)F)n2)cn2cc([C@H]3[C@@H]4COC[C@@H]43)nc12` [Example 416, N-(2-((1R,5S,6s)-3-oxabicyclo[3.1.0]hexan-6-yl)-8-ethoxyimidazo[1,2-a]pyridin-6-yl)-6-(trifluoromethyl)picolinamide], the IC50 is 0.023 µM. On the same count and under the same terms, the same measure for `CC(C)Oc1nc2nc(C34COC(C)(C3)C4)cn2cc1NC(=O)c1cccc(OC2CC2)n1` [Example 494, 6-cyclopropoxy-N-(7-isopropoxy-2-(1-methyl-2-oxabicyclo[2.1.1]hexan-4-yl)imidazo[1,2-a]pyrimidin-6-yl)picolinamide]: 0.006 µM. Same read-out and setting: the same measure for `CC(C)Oc1cc2nc(-c3ccnn3C)cn2cc1NC(=O)c1cccc(C(F)F)n1` [Example 525, 6-(difluoromethyl)-N-(7-isopropoxy-2-(1-methyl-1H-pyrazol-5-yl)imidazo[1,2-a]pyridin-6-yl)picolinamide]: 0.002 µM; for `COc1nc(NC(=O)c2cccc(C(F)F)n2)cn2cc(C3CCCOC3)nc12` (single isomer, unassigned) [Example 297, 6-(difluoromethyl)-N-(8-methoxy-2-(tetrahydro-2H-pyran-3-yl)imidazo[1,2-a]pyrazin-6-yl)picolinamide]: 0.004 µM; for `COc1c(F)cccc1C(=O)Nc1cn2cc(C34CCC(C)(C3)OC4)nc2c(OC)n1` (stereo not shown) [Example 466, 3-fluoro-2-methoxy-N-(8-methoxy-2-(1-methyl-2-oxabicyclo[2.2.1]heptan-4-yl)imidazo[1,2-a]pyrazin-6-yl)benzamide 2,2,2-trifluoroacetate]: 0.059 µM.

As to `COc1ncccc1C(=O)Nc1cn2cc(C34COC(C)(C3)C4)nc2cc1C(F)F` [Example 391, N-(7-(difluoromethyl)-2-(1-methyl-2-oxabicyclo[2.1.1]hexan-4-yl)imidazo[1,2-a]pyridin-6-yl)-2-methoxynicotinamide 2,2,2-trifluoroacetate], the IC50 is 0.021 µM. Same read-out and setting: the same measure for `COc1cccn2ncc(C(=O)Nc3cn4cc(C56COC(C)(C5)C6)nc4c(OC(C)C)n3)c12` [Example 338, N-(8-isopropoxy-2-(1-methyl-2-oxabicyclo[2.1.1]hexan-4-yl)imidazo[1,2-a]pyrazin-6-yl)-4-methoxypyrazolo[1,5-a]pyridine-3-carboxamide]: 0.002 µM; for `CC(C)Oc1c(NC(=O)c2cccn(C(F)F)c2=O)cn2cc(C34COC(C)(C3)C4)nc2c1F` [Example 324, 1-(difluoromethyl)-N-(8-fluoro-7-isopropoxy-2-(1-methyl-2-oxabicyclo[2.1.1]hexan-4-yl)imidazo[1,2-a]pyridin-6-yl)-2-oxo-1,2-dihydropyridine-3-carboxamide]: 0.002 µM.

On to `CCOc1nc2nc(C3CCOCC3)cn2cc1NC(=O)c1ccc2c(n1)CCC2` [Example 570, N-(7-ethoxy-2-(tetrahydro-2H-pyran-4-yl)imidazo[1,2-a]pyrimidin-6-yl)-6,7-dihydro-5H-cyclopenta[b]pyridine-2-carboxamide hydrochloride], for which the IC50 stood at 0.005 µM. The molecule `Cn1ccc(C(=O)Nc2cc(OC(F)F)c3nc(C45COC(C)(C4)C5)cn3c2)n1` [Example 423, N-(8-(difluoromethoxy)-2-(1-methyl-2-oxabicyclo[2.1.1]hexan-4-yl)imidazo[1,2-a]pyridin-6-yl)-1-methyl-1H-pyrazole-3-carboxamide 2,2,2-trifluoroacetate] yielded an IC50 of 0.092 µM. Same read-out and setting: the same measure for `CC(C)Oc1c(NC(=O)c2ccn(C(C)C)n2)cn2cc(C34COC(C)(C3)C4)nc2c1F` [Example 546, N-(8-fluoro-7-isopropoxy-2-(1-methyl-2-oxabicyclo[2.1.1]hexan-4-yl)imidazo[1,2-a]pyridin-6-yl)-1-isopropyl-1H-pyrazole-3-carboxamide 2,2,2-trifluoroacetate]: 0.001 µM; for `CC(C)Oc1cc2nc(C3CCOCC3)cn2cc1NC(=O)c1cc(C(F)F)cs1` [Example 232, 4-(difluoromethyl)-N-(7-isopropoxy-2-(tetrahydro-2H-pyran-4-yl)imidazo[1,2-a]pyridin-6-yl)thiophene-2-carboxamide]: 0.044 µM. Turning to `CC(C)Oc1nc2nc(C34COC(C)(C3)C4)cn2cc1NC(=O)c1ccn(C)n1` [Example 497, N-(7-isopropoxy-2-(1-methyl-2-oxabicyclo[2.1.1]hexan-4-yl)imidazo[1,2-a]pyrimidin-6-yl)-1-methyl-1H-pyrazole-3-carboxamide], the IC50 was 0.006 µM.

Turning to `CCOc1nc(NC(=O)c2cccc(C(F)F)n2)cn2cc(C34COC(C)(C3)C4)nc12` [Example 201, 6-(difluoromethyl)-N-(8-ethoxy-2-(1-methyl-2-oxabicyclo[2.1.1]hexan-4-yl)imidazo[1,2-a]pyrazin-6-yl)picolinamide], the IC50 worked out at 0.004 µM. Molecule `COc1ccccc1C(=O)Nc1cn2cc(C3CCOCC3)nc2c(OC)n1` [Example 457, 2-methoxy-N-(8-methoxy-2-(tetrahydro-2H-pyran-4-yl)imidazo[1,2-a]pyrazin-6-yl)benzamide 2,2,2-trifluoroacetate] came in with an IC50 of 0.096 µM.

`O=C(Nc1cn2cc(C3CCOCC3)nc2cn1)c1cccc2c1OCC2` [Example 275, N-(2-(tetrahydro-2H-pyran-4-yl)imidazo[1,2-a]pyrazin-6-yl)-2,3-dihydrobenzofuran-7-carboxamide] yielded an IC50 of 0.038 µM. Take `CCCOc1nc(NC(=O)c2cccc(C(F)F)n2)cn2cc(C3CCOCC3)nc12` [Example 476, 6-(difluoromethyl)-N-(8-propoxy-2-(tetrahydro-2H-pyran-4-yl)imidazo[1,2-a]pyrazin-6-yl)picolinamide 2,2,2-trifluoroacetate]: half-maximal inhibition (IC50) required 0.006 µM. Molecule `O=C(Nc1cn2cc(C3CCOCC3)nc2cn1)c1csc(C2CC2)n1` [Example 332, 2-cyclopropyl-N-(2-(tetrahydro-2H-pyran-4-yl)imidazo[1,2-a]pyrazin-6-yl)thiazole-4-carboxamide] had an IC50 of 0.108 µM. In turn, `COc1nc(NC(=O)c2cccc(C)n2)cn2cc(C3CCOCC3)nc12` [Example 455, N-(8-methoxy-2-(tetrahydro-2H-pyran-4-yl)imidazo[1,2-a]pyrazin-6-yl)-6-methylpicolinamide] had an IC50 of 0.043 µM.

The experiment is the same for the next values; noted with them: read-out: IRAK4 MSD BIOCHEMICAL (1 mM ATP) IC50, 100 pM IRAK4, 2 hours.
Regarding `COc1nc(NC(=O)c2cccc(C(F)F)n2)cn2cc(C3CCCOC3)nc12` (single isomer, unassigned) [Example 298, 6-(difluoromethyl)-N-(8-methoxy-2-(tetrahydro-2H-pyran-3-yl)imidazo[1,2-a]pyrazin-6-yl)picolinamide], the IC50 amounted to 0.004 µM.
